Test results taken from US12409138B2, “Nanoparticles and nanogel drug compositions for treatment of age-related macular degeneration” (University of South Florida, priority 2019, dated 2025).

How the values were obtained:
ARPE-19 cells [1] = test: Cytotoxicity study (MTT assay); type: cell-based, human; conditions: 20 μM
Protocol: Cell culture. ARPE-19, a human retinal pigment epithelial cell line ([…]) cells were grown and maintained in DMEM F12 medium supplemented with 10% v/v FBS and 1% 10,000 U/ml penicillin-streptomycin antibiotics. The cell cultures were allowed to incubate at 37° C. temperature, in a humidified atmosphere with 5% CO2. Cytotoxicity study. The MTT assay was carried out to determine cytotoxicity of SM-NPs as well as in SM-NPs gel in comparison with pure drug solution, in ARPE-19, human retinal pigment epithelial cells. The cells were seeded in 200 μl of DMEM F12 supplemented with 10% FBS in a 96 well plate (Corning, N.Y.) at a seeding density of 5000 cells/well and incubated for 24 h at 37° C., 5% CO2 atmosphere to allow attachment and growth of the cells. SM drug solution and formulations with various concentrations of SM were prepared by first dissolving SM in DMSO and then diluting them with DMEM F12 medium without FBS. The cells were treated with formulations after 24 h of seeding and incubated for […]. […] Intensity of color produced after dissolution of formazan crystals was quantified by measuring optical density at 595 nm wavelength by microtiter plate reader (Spectra MAX 190, Molecular Devices, California, USA). […] Cell viability were calculated graphically from concentration vs viability curves, considering the optical density of control well as 100% viable.

[2] = In vitro drug release study by dialysis; type: physicochemical
Protocol: In vitro drug release study. The in vitro drug release study for SM from nanoparticles and nanoparticles incorporated thermo-reversible gel were compared with plain drug solution and was studied at 37°±0.5° C. In short, drug solution in DMSO, SM-NPs and SM-NP Gel having equivalent quantity of SM (1 mg/ml) were placed in dialysis tubes (MWCO 10 KDa) and sealed tightly by using dialysis closures. Then, the dialysis tubes were immersed in 20 ml of PBS (pH 7.4) as a release medium comprising of 0.1% Tween 80 (v/v). Release medium was allowed to stir at 150 rpm and the 0.5 mL of samples were withdrawn at 0.25, 0.5, 1, 2, 4, 6, 12, 24, 48, 72, 96, 120, 144 and 168 h. The volumes were made up with fresh release medium after each sampling. The concentration of SM in a sample was determined by UV spectroscopy at 432 nm after dilution with methanol in ratio of 1:10. For all the formulations, in vitro release tests were carried out in triplicate and results were described as cumulative quantity of drug released at each point of time.

ARPE-19 cells [3] = test: Wound scratch assay (cell migration, with or without VEGF165); type: cell-based, human; conditions: 1 μM, 48 h
Protocol: Wound scratch assay. Wound healing assay was performed as per the earlier reports to analyse the inhibitory effect of SM and its formulation on VEGF165 (rhVEGF; R&D Systems) induced angiogenesis. ARPE-19 cells were seeded and allowed to grow to attain 80% confluency in 24-well plates. Carefully, wounds were made by pipette tip to take out monolayer of cells as a strip. The wounds were created typically with around 300 μm of the average size and […] variation in wound width was considered for the study. To ensure removal of partially adhered cells on the plates due to creation of the wound, they were washed with sterile PBS twice. The cell wells were then treated with at 1 μM and 10 μM concentrations of SM-NP gel formulations in DMEM F12 media without FBS. Cell migration was observed by using ZEISS inverted phase contrast microscope, (Axicom 506 mono) with Axicom MRCS-ZEN2pro software and quantified by calculating the area covered by the cells because of cell migration from the wound edges towards the center area of the wound using ImageJ software. To check the effect of presence of VEGF on the cell migration, two wells were also kept at above two concentrations and treated with VEGF simultaneously. […] The width of the wound was measured using images captured by microscope. […]

[4] = tested on: VEGF-A secretion in ARPE-19 cells; test: VEGF inhibition using ELISA; type: cell-based, human
Protocol: VEGF inhibition using ELISA. Human retinal pigmented epithelium ARPE-19 cells were seeded in 24 well plate at density of 5×10^4 cells/mL and allowed to grow for 24 h in DMEM F12 medium supplemented with 10% FBS and were incubated at 37° C., 5% CO2 atmosphere till wells became confluent. After 24 h, the culture media was replaced by incomplete media which is DMEM F12 without FBS and treatment with formulation was given. […] Quantification of the VEGF secretion in the culture media was done by ELISA method using Human VEGF-A Platinum ELISA Kit following manufacturer's instructions. The protein content in the cells were estimated using Pierce BCA protein assay kit after collecting cell lysate and the by normalizing VEGF secretion to total protein. Samples were read using ELISA plate reader (Spectra MAX 190, Molecular Devices, California, USA) at 450 nm absorbance and 550 nm and difference was recorded, followed by calculating inhibition of VEGF secretion using standard curve.

CCN(CC)CCNC(=O)c1c(C)[nH]c(/C=C2\C(=O)Nc3ccc(F)cc32)c1C [SM solution, Sunitinib malate]
Viability lost (ARPE-19 cells [1]; 24 h): 25% | Viability lost (ARPE-19 cells [1]; 48 h): 30% | Release kinetics model [2]: first order drug release | Cumulative drug release at 1 hr ([2]; PBS pH 7.4, 0.1% Tween 80, 37° C.): 80%±2.5% | Wound recovery (ARPE-19 cells [3]): 80±1.8% | VEGF secretion ([4]; 12 hr, compared to the NPs treatment): noticeably reduced | VEGF expression levels ([4]; 48 h, 10 μM SM equivalent, control = 100%): 90% | activity at 10 µM ([4]; Homo sapiens, ARPE-19, 12 h, 10 μM SM equivalent, control = 100%, read-out: Inhibition of VEGF levels): 56 ± 3%
